Key:
Format in all cases: in vivo
[1] = system: western flower thrips (Frankliniella occidentalis); experiment: Test E: control of western flower thrips on Soleil bean plant, contact and/or systemic; conditions: held 6 days
In short: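 5–7-day-old Soleil bean plants were sprayed at 250 or 50 ppm in 10% acetone/90% water with 300 ppm X-77 surfactant, three replicates. After drying 1 h, 22–27 adult thrips were added per unit. Mortality and plant damage were rated after 6 days at 25 °C and 45–55% RH.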

[2] = system: diamondback moth (Plutella xylostella); experiment: Test A: control of diamondback moth on radish plant, foliar spray; conditions: sprayed at 50 ppm, held 6 days
In short: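 Radish plants 12–14 days old, pre-infested with about 50 neonate larvae, sprayed at 50 ppm in 10% acetone/water with 300 ppm X-77 surfactant; three replicates. After 6 days at 25° C and 70% RH, feeding damage was scored visually and mortality counted.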

[3] = system: fall armyworm (Spodoptera frugiperda); experiment: Test B: control of fall armyworm on corn (maize) plant, foliar spray; conditions: sprayed at 50 ppm
In short: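 4-5-day-old corn plants pre-infested with 10-15 1-day-old larvae on insect diet, then sprayed with compound at 50 ppm in 10% acetone/90% water with 300 ppm surfactant, three replicates. Held 6 days at 25° C, 70% RH; feeding damage assessed visually and mortality rated.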

Measured: levels of control efficacy (20% or less feeding damage or 80% or more mortality)

CCCNC(=O)CNC(=O)c1ccc(C2=NOC(c3cc(Cl)cc(C(F)(F)F)c3)(C(F)(F)F)C2)c2ccccc12 (stereo not drawn) [Compound 117]
very good to excellent: [1]; sprayed at 50 ppm | [1]; sprayed at 250 ppm | [2] | [3]

CCNC(=O)CNC(=O)c1ccc(C2=NOC(c3cc(Cl)cc(Cl)c3)(C(F)(F)F)C2)c2ccccc12 (stereo not drawn) [Compound 8]
very good to excellent: [1]; sprayed at 50 ppm | [1]; sprayed at 250 ppm | [2] | [3]

CC[S+]([O-])CCNC(=O)c1ccc(C2=NOC(c3cc(C(F)(F)F)cc(C(F)(F)F)c3)(C(F)(F)F)C2)c2ccccc12 (stereo not drawn) [Compound 98]
very good to excellent: [1]; sprayed at 50 ppm | [2] | [3]

O=C(CNC(=O)c1ccc(C2=NOC(c3cc(Cl)cc(C(F)(F)F)c3)(C(F)(F)F)C2)c2ccccc12)NCC(F)(F)F (stereo not drawn) [Compound 62]
very good to excellent: [1]; sprayed at 50 ppm | [1]; sprayed at 250 ppm | [2] | [3]

O=C(CNC(=O)c1ccc(C2=NOC(c3cc(Cl)cc(Cl)c3)(C(F)(F)F)C2)c2ccccc12)NCCF (stereo not drawn) [Compound 12]
very good to excellent: [1]; sprayed at 50 ppm | [1]; sprayed at 250 ppm | [2] | [3]

CCNC(=O)C(C)NC(=O)c1ccc(C2=NOC(c3cc(F)cc(C(F)(F)F)c3)(C(F)(F)F)C2)c2ccccc12 (mixture of isomers) [Compound 137]
very good to excellent: [1]; sprayed at 50 ppm | [2] | [3]

CCNC(=O)CNC(=O)c1ccc(C2=NOC(c3cc(Br)cc(C(F)(F)F)c3)(C(F)(F)F)C2)c2ccccc12 (racemic) [Compound 144]
very good to excellent: [1]; sprayed at 50 ppm | [2] | [3]

CNC(=O)CNC(=O)c1ccc(C2=NOC(c3cc(Br)cc(C(F)(F)F)c3)(C(F)(F)F)C2)c2ccccc12 (racemic) [Compound 143]
very good to excellent: [1]; sprayed at 50 ppm | [2] | [3]

CS(=O)(=O)CCNC(=O)c1ccc(C2=NOC(c3cc(Cl)cc(Cl)c3)(C(F)(F)F)C2)c2ccccc12 (stereo not drawn) [Compound 20]
very good to excellent: [1]; sprayed at 50 ppm | [1]; sprayed at 250 ppm | [2] | [3]

CCSCCNC(=O)c1ccc(C2=NOC(c3cccc(C(F)(F)F)c3)(C(F)(F)F)C2)c2ccccc12 (racemic) [Compound 51]
very good to excellent: [1]; sprayed at 50 ppm | [1]; sprayed at 250 ppm | [2] | [3]

CSCCNC(=O)c1ccc(C2=NOC(c3cc(Cl)cc(Cl)c3)(C(F)(F)F)C2)c2ccccc12 (stereo not drawn) [Compound 17]
very good to excellent: [1]; sprayed at 50 ppm | [1]; sprayed at 250 ppm | [2] | [3]

C[S+]([O-])CCNC(=O)c1ccc(C2=NOC(c3cc(Cl)cc(Cl)c3)(C(F)(F)F)C2)c2ccccc12 (stereo not drawn) [Compound 18]
very good to excellent: [1]; sprayed at 50 ppm | [1]; sprayed at 250 ppm | [2] | [3]

C[S+]([O-])CCNC(=O)c1ccc(C2=NOC(c3cc(F)cc(C(F)(F)F)c3)(C(F)(F)F)C2)c2ccccc12 (mixture of isomers) [Compound 133]
very good to excellent: [1]; sprayed at 50 ppm | [1]; sprayed at 250 ppm | [2] | [3]

CCSCCCNC(=O)c1ccc(C2=NOC(c3cccc(C(F)(F)F)c3)(C(F)(F)F)C2)c2ccccc12 (racemic) [Compound 48]
very good to excellent: [1]; sprayed at 250 ppm | [2] | [3]

CC(C)NC(=O)CNC(=O)c1ccc(C2=NOC(c3cc(Br)cc(C(F)(F)F)c3)(C(F)(F)F)C2)c2ccccc12 (racemic) [Compound 53]
very good to excellent: [1]; sprayed at 50 ppm | [1]; sprayed at 250 ppm | [2] | [3]

CC(NC(=O)c1ccc(C2=NOC(c3cc(C(F)(F)F)cc(C(F)(F)F)c3)(C(F)(F)F)C2)c2ccccc12)C(=O)NCC(F)(F)F (stereo not drawn) [Compound 85]
very good to excellent: [1]; sprayed at 50 ppm | [1]; sprayed at 250 ppm | [2] | [3]

C[S+]([O-])CCNC(=O)c1ccc(C2=NOC(c3cc(C(F)(F)F)cc(C(F)(F)F)c3)(C(F)(F)F)C2)c2ccccc12 (stereo not drawn) [Compound 79]
very good to excellent: [1]; sprayed at 50 ppm | [1]; sprayed at 250 ppm | [2] | [3]
